# Assay results from ChEMBL document CHEMBL1671859, “bla(IMP-4) in different genetic contexts in Enterobacteriaceae isolates from Australia” (2008).
# Key:
# Assay type in all cases: functional
# Escherichia coli [1] = experiment: Antibacterial activity against Escherichia coli Ec221 transconjugant harboring IncA/C plasmid and blaIMP-4-qacG2-aacA4-catB3 array by Etest method
# Enterobacter cloacae [2] = experiment: Antibacterial activity against Enterobacter cloacae isolate El3799 harboring IncL/M plasmid and blaIMP-4-qacG2-aacA4-catB3 array by Etest method
# Klebsiella pneumoniae [3] = experiment: Antibacterial activity against Klebsiella pneumoniae Kp149 transconjugant harboring IncA/C plasmid and blaIMP-4-qacG2-aacA4-catB3 array by Etest method
# Klebsiella pneumoniae [4] = experiment: Antibacterial activity against Klebsiella pneumoniae isolate Kp4614
# Escherichia coli [5] = experiment: Antibacterial activity against Escherichia coli isolate Ec9381 harboring IncL/M plasmid and blaIMP-4-qacG2-aacA4-catB3 array by Etest method
# Morganella morganii [6] = experiment: Antibacterial activity against Morganella morganii isolate Mm1229 harboring IncL/M plasmid and blaIMP-4-qacG2-aacA4-catB3 array by Etest method
# Citrobacter youngae [7] = experiment: Antibacterial activity against Citrobacter youngae CyB38 transconjugant harboring blaIMP-4-qacG2-aacA4-catB3 array by Etest method
# Klebsiella pneumoniae [8] = experiment: Antibacterial activity against Klebsiella pneumoniae isolate Kp1945 harboring IncL/M plasmid and blaIMP-4-qacG2-aacA4-catB3 and dfrA12-orfF-aadA2 arrays by Etest method
# Klebsiella pneumoniae [9] = experiment: Antibacterial activity against Klebsiella pneumoniae isolate Kp211 harboring IncA/C plasmid and blaIMP-4-qacG2-aacA4-catB3 array by Etest method
# Escherichia coli [10] = experiment: Antibacterial activity against Escherichia coli Ec158 transconjugant harboring IncA/C plasmid and blaIMP-4-qacG2-aacA4-catB3 array by Etest method
# Klebsiella pneumoniae [11] = experiment: Antibacterial activity against Klebsiella pneumoniae isolate Kp7564 harboring IncL/M plasmid and blaIMP-4-qacG2-aacA4-catB3 array by Etest method
# Klebsiella oxytoca [12] = experiment: Antibacterial activity against Klebsiella oxytoca isolate Ko238 harboring IncA/C plasmid and blaIMP-4-qacG2-aacA4-catB3 array by Etest method
# Klebsiella oxytoca [13] = experiment: Antibacterial activity against Klebsiella oxytoca Ko0426 transconjugant harboring IncL/M plasmid and blaIMP-4-qacG2-aacA4-catB3 array by Etest method
# Klebsiella pneumoniae [14] = experiment: Antibacterial activity against Klebsiella pneumoniae Kp3799 transconjugant harboring IncL/M plasmid and blaIMP-4-qacG2-aacA4-catB3 array by Etest method
# Klebsiella pneumoniae [15] = experiment: Antibacterial activity against Klebsiella pneumoniae isolate Kp204 harboring IncA/C plasmid and blaIMP-4-qacG2-aacA4-catB3 array by Etest method
# Klebsiella pneumoniae [16] = experiment: Antibacterial activity against Klebsiella pneumoniae isolate Kp1239 harboring IncL/M plasmid and blaIMP-4-qacG2-aacA4-catB3 array by Etest method
# Citrobacter koseri [17] = experiment: Antibacterial activity against Citrobacter koseri Ck211 transconjugant harboring IncA/C plasmid and blaIMP-4-qacG2-aacA4-catB3 array by Etest method
# Morganella morganii [18] = experiment: Antibacterial activity against Morganella morganii Mm38009 transconjugant harboring IncL/M plasmid and blaIMP-4-qacG2-aacA4-catB3 array by Etest method
# Citrobacter koseri [19] = experiment: Antibacterial activity against Citrobacter koseri isolate Ck211 harboring IncA/C plasmid and blaIMP-4-qacG2-aacA4-catB3 array by Etest method
# Klebsiella pneumoniae [20] = experiment: Antibacterial activity against Klebsiella pneumoniae isolate Kp2730 harboring IncL/M plasmid and blaIMP-4-qacG2-aacA4-catB3 and dfrA12-orfF-aadA2 arrays by Etest method
# Serratia marcescens [21] = experiment: Antibacterial activity against Serratia marcescens Sm265 transconjugant harboring IncA/C plasmid and blaIMP-4-qacG2-aacA4-catB3 array by Etest method
# Serratia marcescens [22] = experiment: Antibacterial activity against Serratia marcescens isolate Sm201 harboring IncA/C plasmid and blaIMP-4-qacG2-aacA4-catB3 array by Etest method
# Klebsiella oxytoca [23] = experiment: Antibacterial activity against Klebsiella oxytoca Ko238 transconjugant harboring IncA/C plasmid and blaIMP-4-qacG2-aacA4-catB3 array by Etest method
# Klebsiella oxytoca [24] = experiment: Antibacterial activity against Klebsiella oxytoca Ko1156 transconjugant harboring IncL/M plasmid and blaIMP-4-qacG2-aacA4-catB3 array by Etest method
# Enterobacter cloacae [25] = experiment: Antibacterial activity against Enterobacter cloacae isolate El3280 harboring IncL/M plasmid and blaIMP-4-qacG2-aacA4-catB3 array by Etest method
# Klebsiella pneumoniae [26] = experiment: Antibacterial activity against Klebsiella pneumoniae Kp204 transconjugant harboring IncA/C plasmid and blaIMP-4-qacG2-aacA4-catB3 array by Etest method
# Klebsiella pneumoniae [27] = experiment: Antibacterial activity against Klebsiella pneumoniae isolate Kp266 harboring IncA/C plasmid and blaIMP-4-qacG2-aacA4-catB3 array by Etest method
# Serratia marcescens [28] = experiment: Antibacterial activity against Serratia marcescens Sm2723 transconjugant harboring IncL/M plasmid and blaIMP-4-qacG2-aacA4-catB3 array by Etest method
# Escherichia coli [29] = experiment: Antibacterial activity against Escherichia coli isolate Ec158 harboring IncA/C plasmid and blaIMP-4-qacG2-aacA4-catB3 array by Etest method
# Enterobacter cloacae [30] = experiment: Antibacterial activity against Enterobacter cloacae El3518 transconjugant harboring IncL/M plasmid and blaIMP-4-qacG2-aacA4-catB3 array by Etest method
# Serratia marcescens [31] = experiment: Antibacterial activity against Serratia marcescens isolate Sm211 harboring IncA/C plasmid and blaIMP-4-qacG2-aacA4-catB3 array by Etest method
# Morganella morganii [32] = experiment: Antibacterial activity against Morganella morganii isolate Mm1614 harboring IncL/M plasmid and blaIMP-4-qacG2-aacA4-catB3 array by Etest method
# Enterobacter cloacae [33] = experiment: Antibacterial activity against Enterobacter cloacae El3799 transconjugant harboring IncL/M plasmid and blaIMP-4-qacG2-aacA4-catB3 array by Etest method
# Morganella morganii [34] = experiment: Antibacterial activity against Morganella morganii isolate Mm38009 harboring IncL/M plasmid and blaIMP-4-qacG2-aacA4-catB3 array by Etest method
# Klebsiella pneumoniae [35] = experiment: Antibacterial activity against Klebsiella pneumoniae isolate Kp38009 harboring IncL/M plasmid and blaIMP-4-qacG2-aacA4-catB3 array by Etest method
# Serratia marcescens [36] = experiment: Antibacterial activity against Serratia marcescens isolate Sm220 harboring IncA/C plasmid and blaIMP-4-qacG2-aacA4-catB3 array by Etest method
# Enterobacter cloacae [37] = experiment: Antibacterial activity against Enterobacter cloacae isolate El216 harboring IncA/C plasmid and blaIMP-4-qacG2-aacA4-catB3 array by Etest method
# Citrobacter youngae [38] = experiment: Antibacterial activity against Citrobacter youngae isolate CyB38 harboring blaIMP-4-qacG2-aacA4-catB3 array by Etest method
# Enterobacter cloacae [39] = experiment: Antibacterial activity against Enterobacter cloacae isolate El3518 harboring IncL/M plasmid and blaIMP-4-qacG2-aacA4-catB3 array by Etest method
# Serratia marcescens [40] = experiment: Antibacterial activity against Serratia marcescens isolate Sm265 harboring IncA/C plasmid and blaIMP-4-qacG2-aacA4-catB3 array by Etest method
# Enterobacter cloacae [41] = experiment: Antibacterial activity against Enterobacter cloacae isolate El1573 harboring IncL/M plasmid and blaIMP-4-qacG2-aacA4-catB3 array by Etest method
# Citrobacter amalonaticus = experiment: Antibacterial activity against Citrobacter amalonaticus isolate Ca1614 harboring IncL/M plasmid and blaIMP-4-qacG2-aacA4-catB3 array by Etest method
compound,measurement,setting,value
C[C@@H](O)[C@H]1C(=O)N2C(C(=O)O)=C(SCCNC=N)C[C@H]12 [IMIPENEM ANHYDROUS],MIC,Escherichia coli [1],4 µg/mL
same,MIC,Enterobacter cloacae [2],1 µg/mL
same,MIC,Klebsiella pneumoniae [3],4 µg/mL
same,MIC,Klebsiella pneumoniae [4],≤ 1 µg/mL
same,MIC,Escherichia coli [5],1.5 µg/mL
same,MIC,Morganella morganii [6],4 µg/mL
same,MIC,Citrobacter youngae [7],4 µg/mL
same,MIC,Klebsiella pneumoniae [8],8 µg/mL
same,MIC,Klebsiella pneumoniae [9],2 µg/mL
same,MIC,Escherichia coli [10],2 µg/mL
same,MIC,Klebsiella pneumoniae [11],7 µg/mL
same,MIC,Klebsiella oxytoca [12],8 µg/mL
same,MIC,Klebsiella oxytoca [13],4 µg/mL
same,MIC,Klebsiella pneumoniae [14],2 µg/mL
same,MIC,Klebsiella pneumoniae [15],8 µg/mL
same,MIC,Klebsiella pneumoniae [16],> 32 µg/mL
same,MIC,Citrobacter koseri [17],≤ 1 µg/mL
same,MIC,Morganella morganii [18],2 µg/mL
same,MIC,Citrobacter koseri [19],≤ 1 µg/mL
same,MIC,Klebsiella pneumoniae [20],8 µg/mL
same,MIC,Serratia marcescens [21],2 µg/mL
same,MIC,Serratia marcescens [22],8 µg/mL
same,MIC,Klebsiella oxytoca [23],2 µg/mL
same,MIC,Klebsiella oxytoca [24],≤ 1 µg/mL
same,MIC,Enterobacter cloacae [25],3 µg/mL
same,MIC,Klebsiella pneumoniae [26],4 µg/mL
same,MIC,Klebsiella pneumoniae [27],8 µg/mL
same,MIC,Serratia marcescens [28],2 µg/mL
same,MIC,Escherichia coli [29],≤ 1 µg/mL
same,MIC,Enterobacter cloacae [30],2 µg/mL
same,MIC,Serratia marcescens [31],4 µg/mL
same,MIC,Morganella morganii [32],8 µg/mL
same,MIC,Enterobacter cloacae [33],≤ 1 µg/mL
same,MIC,Morganella morganii [34],3 µg/mL
same,MIC,Klebsiella pneumoniae [35],0.5 µg/mL
same,MIC,Serratia marcescens [36],> 8 µg/mL
same,MIC,Enterobacter cloacae [37],> 8 µg/mL
same,MIC,Citrobacter youngae [38],8 µg/mL
same,MIC,Enterobacter cloacae [39],3 µg/mL
same,MIC,Serratia marcescens [40],> 8 µg/mL
same,MIC,Enterobacter cloacae [41],8 µg/mL
same,MIC,Citrobacter amalonaticus,4 µg/mL
CO/N=C(\C(=O)N[C@@H]1C(=O)N2C(C(=O)O)=C(COC(C)=O)CS[C@H]12)c1csc(N)n1 [CEFOTAXIME],MIC,Escherichia coli [1],32 µg/mL
same,MIC,Enterobacter cloacae [2],> 32 µg/mL
same,MIC,Klebsiella pneumoniae [3],> 32 µg/mL
same,MIC,Klebsiella pneumoniae [4],> 32 µg/mL
same,MIC,Escherichia coli [5],> 32 µg/mL
same,MIC,Morganella morganii [6],> 32 µg/mL
same,MIC,Citrobacter youngae [7],> 32 µg/mL
same,MIC,Klebsiella pneumoniae [8],> 32 µg/mL
same,MIC,Klebsiella pneumoniae [9],> 32 µg/mL
same,MIC,Escherichia coli [10],> 32 µg/mL
same,MIC,Klebsiella pneumoniae [11],32 µg/mL
same,MIC,Klebsiella oxytoca [12],> 32 µg/mL
same,MIC,Klebsiella oxytoca [13],32 µg/mL
same,MIC,Klebsiella pneumoniae [14],32 µg/mL
same,MIC,Klebsiella pneumoniae [15],> 32 µg/mL
same,MIC,Klebsiella pneumoniae [16],> 32 µg/mL
same,MIC,Citrobacter koseri [17],> 2 µg/mL
same,MIC,Morganella morganii [18],32 µg/mL
same,MIC,Citrobacter koseri [19],> 32 µg/mL
same,MIC,Klebsiella pneumoniae [20],> 32 µg/mL
same,MIC,Serratia marcescens [21],> 32 µg/mL
same,MIC,Serratia marcescens [22],> 32 µg/mL
same,MIC,Klebsiella oxytoca [23],32 µg/mL
same,MIC,Klebsiella oxytoca [24],16 µg/mL
same,MIC,Enterobacter cloacae [25],> 32 µg/mL
same,MIC,Klebsiella pneumoniae [26],> 32 µg/mL
same,MIC,Klebsiella pneumoniae [27],> 32 µg/mL
same,MIC,Serratia marcescens [28],16 µg/mL
same,MIC,Escherichia coli [29],> 32 µg/mL
same,MIC,Enterobacter cloacae [30],32 µg/mL
same,MIC,Serratia marcescens [31],> 32 µg/mL
same,MIC,Morganella morganii [32],32 µg/mL
same,MIC,Enterobacter cloacae [33],32 µg/mL
same,MIC,Morganella morganii [34],32 µg/mL
same,MIC,Klebsiella pneumoniae [35],> 32 µg/mL
same,MIC,Serratia marcescens [36],> 32 µg/mL
same,MIC,Enterobacter cloacae [37],> 32 µg/mL
same,MIC,Citrobacter youngae [38],> 32 µg/mL
same,MIC,Enterobacter cloacae [39],> 32 µg/mL
same,MIC,Serratia marcescens [40],> 32 µg/mL
same,MIC,Enterobacter cloacae [41],> 32 µg/mL
same,MIC,Citrobacter amalonaticus,> 32 µg/mL
